The test system of data set [1] is gastric adenocarcinoma SGC-7901 cells. The data set is described as follows: MTT antiproliferative assay, SGC-7901. It counts as cell-based, human. The following applies: read-out: IC50 SGC-7901. On the procedure:
(§1) The SGC-7901, A549 and HT-1080 cell lines were purchased from the American Type Culture Collection (ATCC, Manassas, VA, USA). […] Briefly, approximately 3 × 10^4 cells were seeded in a 96-well plate. After 24 h of incubation at 37 °C, cells were exposed to compounds of differing concentrations for 24 h. After treatment, cells were washed with 1X PBS followed by addition of 100 µL of 0.05% MTT reagent to each well, followed by incubation for 4 h at 37 °C. After incubation, the supernatant from each well was carefully removed and the formazan crystals were dissolved in 100 µL of DMSO. The colour density was measured spectrophotometrically at 490 nm using a microplate reader (SpectraMax Plus384, Molecular Devices Corp., USA). The data were calculated and plotted as percent viability compared to control.
as §1
A general note: Tetrazolium dyes change colour on reduction, which living cells bring about.

Data set [2] relates to lung adenocarcinoma A549 cells. The data set is described as follows: MTT antiproliferative assay, A549. It counts as cell-based, human. Conditions: read-out: IC50 A549. On the procedure: as §1, §1
The test system of data set [3] is fibrosarcoma HT-1080 cells. The data set is described as follows: MTT antiproliferative assay, HT-1080. It counts as cell-based, human. Conditions: read-out: IC50 HT-1080. On the procedure:
as §1, §1

The subject of data set [4] is SGC-7901, A549 and HT-1080 cell lines. Briefly: MTT antiproliferative assay, span over the three cell lines. It counts as cell-based, human. Conditions: for antiproliferative activity in words: SGC-7901, A549 and HT-1080; for IC50: read-out: IC50 range against the three human cancer cell lines. On the procedure: as §1, §1
In data set [5] the target is T1, highly purified tubulin from porcine brain (Sus scrofa, UniProt P02554).
T1 construct: highly purified tubulin from porcine brain; purchased Cytoskeleton BK011P; host or cells: porcine brain (tissue-purified)
The data set is described as follows: Tubulin polymerization assay. It counts as biochemical. Conditions: CA-4 0.5-4 µM, 6i 0.1-8.0 µM, paclitaxel 5.0 µM, 37 °C. The protocol: This assay uses highly purified tubulin from porcine brain.
The reaction was monitored at 37 °C.
(§2) Tubulin polymerization assay[33] was conducted with reagents as described in the kit manufacturer (Cytoskeleton, Cat.#BK011P) in a 96-well plate. In brief, tubulin was re-suspended in ice-cold G-PEM buffer (80 mM PIPES, 2 mM MgCl2, 0.5 mM EGTA, 1 mM GTP, 20% (v/v) glycerol) and added to wells on a 96-well plate containing the designated concentration of drugs or vehicle. Samples were mixed well, and tubulin assembly was monitored (emission wavelength: 450 ± 20 nm; excitation wavelength: 360 ± 20 nm) at 1 min intervals for 90 min at 37 °C in a SpectraMax 340PC spectrophotometer (Biotek Synergy HT, Winooskin, VT, USA). IC50 values were calculated from data at the 20 min time point using GraphPad Prism software. Experiments were repeated three times.
as §2, with “assay” for “assay[33]”, “450±20” for “450 ± 20”, “360±20” for “360 ± 20”, “timepoint” for “time point”

In the next data set the test system is HCT116. Further details: method as in Org. Biomol. Chem. 2005, 3, 2657-2660. The following applies: ref Org. Biomol. Chem. 2005, 3, 2657-2660; cited from earlier work.
The mark [6] stands for this setting: MTT assay, 24 h exposure, triplicate.
Where [7] appears, read: range over SGC-7901, A549 and HT-1080, MTT assay.
[8] abbreviates: Homo sapiens, SGC-7901, MTT assay, 24 h exposure, triplicate.
The mark [9] stands for this setting: Homo sapiens, A549, MTT assay, 24 h exposure, triplicate.
Setting [10] is: Homo sapiens, HT-1080, MTT assay, 24 h exposure, triplicate.

Entries after “also recorded” stand apart in the source; their conditions may differ. Like-named read-outs stand apart in the source and are kept apart here.

T1 sequence (P02554 whole entry): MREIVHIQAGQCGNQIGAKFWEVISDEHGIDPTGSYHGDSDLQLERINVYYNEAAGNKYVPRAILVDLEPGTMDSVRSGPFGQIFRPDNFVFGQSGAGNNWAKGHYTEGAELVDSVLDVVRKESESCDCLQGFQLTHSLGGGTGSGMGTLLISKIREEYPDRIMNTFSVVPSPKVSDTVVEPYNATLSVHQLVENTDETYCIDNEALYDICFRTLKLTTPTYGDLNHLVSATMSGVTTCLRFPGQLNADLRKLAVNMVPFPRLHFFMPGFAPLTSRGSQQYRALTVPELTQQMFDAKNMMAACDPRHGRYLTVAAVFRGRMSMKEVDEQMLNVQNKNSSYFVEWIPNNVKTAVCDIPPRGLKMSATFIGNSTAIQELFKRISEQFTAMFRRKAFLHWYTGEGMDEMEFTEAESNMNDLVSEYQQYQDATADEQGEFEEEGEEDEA
T1 sequence (P02550 whole entry partner): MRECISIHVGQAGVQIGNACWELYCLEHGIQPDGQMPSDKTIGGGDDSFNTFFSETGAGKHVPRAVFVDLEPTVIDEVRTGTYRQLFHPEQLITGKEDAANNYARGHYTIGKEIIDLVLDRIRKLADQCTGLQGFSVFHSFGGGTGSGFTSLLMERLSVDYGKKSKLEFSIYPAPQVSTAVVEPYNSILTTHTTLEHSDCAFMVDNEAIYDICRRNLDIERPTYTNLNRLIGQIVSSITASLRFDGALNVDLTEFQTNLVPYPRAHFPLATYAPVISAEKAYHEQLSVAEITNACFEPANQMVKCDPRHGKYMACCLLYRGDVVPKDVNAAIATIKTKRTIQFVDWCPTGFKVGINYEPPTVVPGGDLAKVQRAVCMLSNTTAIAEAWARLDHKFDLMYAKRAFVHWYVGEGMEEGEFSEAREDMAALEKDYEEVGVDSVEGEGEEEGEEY

With `COc1ccc(C2=Nn3c(nnc3-c3ccc(OC)c(OC)c3OC)SC2)cc1N` [Compound 4j, 3-(2,3,4-Trimethoxyphenyl)-6-(3-amino-4-methoxyphenyl)-7H-[1,2,4]triazolo[3,4-b][1,3,4]thiadiazine], the melting point (as a rule, the temperature of the solid-liquid transition) is 93 to 94 °C. Also, the IC50 (commonly the concentration needed to halve the response being measured) in data set [1] (Homo sapiens, SGC-7901, 24 h) was determined as 1570 nM. Moreover, the IC50 in data set [2] (Homo sapiens, A549, 24 h) turned out to be 1580 nM. For the same compound, the IC50 in data set [3] (Homo sapiens, HT-1080, 24 h) was 890 nM. In addition, the “antiproliferative activity in words” value in data set [4] (MTT assay) is reported as “only moderate activity”.
For `COc1cc(-c2nnc3n2N=C(c2ccc(C)cc2)CS3)cc(OC)c1OC` [Compound 5b, 3-(3,4,5-Trimethoxyphenyl)-6-(4-methyphenyl)-7H-[1,2,4]triazolo[3,4-b][1,3,4]thiadiazine], the half-maximal inhibitory concentration (IC50) in data set [1] (setting [6]) is 27 nM; in data set [2] (setting [6]), 19 nM; in data set [3] (setting [6]), 16 nM; in data set [4] (setting [7]), 16 to 27 nM. In data set [4] (MTT assay), the “antiproliferative activity in words” value is given as “IC50 values at the nanomolar level”.
In the case of `COc1ccc(-c2nnc3n2N=C(c2ccc(OC)c(N)c2)CS3)cc1` [Compound 6k, 3-(4-Methoxyphenyl)-6-(3-amino-4-methoxyphenyl)-7H-[1,2,4]triazolo[3,4-b][1,3,4]thiadiazine], the melting point fell in the range of 214 to 215 °C. In addition, the IC50 in data set [1] (setting [8]) came to 36 nM. Further, in data set [2] (setting [9]), the IC50 worked out at 38 nM. For the same compound, the concentration for half-maximal inhibition (IC50) in data set [3] (setting [10]) is 23 nM. In addition, the “antiproliferative activity in words” value in data set [4] (MTT assay) is recorded as “nanomolar IC50 values against all tested cells; also recorded: IC50 values at the nanomolar level”.
`COc1ccc(C2=Nn3c(nnc3-c3ccc(OC)c(OC)c3)SC2)cc1N` [Compound 6g, 3-(3,4-Dimethoxyphenyl)-6-(3-amino-4-methoxyphenyl)-7H-[1,2,4]triazolo[3,4-b][1,3,4]thiadiazine] showed a melting point of 213 to 215 °C. For the same compound, in data set [1] (setting [8]), the IC50 was 23 nM. Moreover, in data set [2] (setting [9]), the IC50 was 32 nM. Besides, the IC50 in data set [3] (setting [10]) is 18 nM. Further, in data set [4] (MTT assay), the “antiproliferative activity in words” value is recorded as “IC50 values at the nanomolar level”. Also, in data set [4] (MTT assay, listed as 6 g), the “antiproliferative activity in words” value is given as “nanomolar IC50 values against all tested cells”.
In turn, `COc1ccc(C2=Nn3c(nnc3-c3ccc4c(c3)OCO4)SC2)cc1N` [Compound 6c, 3-(3,4-Methylenedioxyphenyl)-6-(3-amino-4-methoxyphenyl)-7H-[1,2,4]triazolo[3,4-b][1,3,4]thiadiazine] yielded a melting point of 88 to 90 °C. Also, the IC50 in data set [1] (setting [8]) was found to be 18 nM. The IC50 in data set [2] (setting [9]) was found to be 26 nM. Moreover, in data set [3] (setting [10]), the IC50 was 21 nM. The “antiproliferative activity in words” value in data set [4] (MTT assay) is reported as “nanomolar IC50 values against all tested cells; also recorded: IC50 values at the nanomolar level”.
For the compound `CC(=O)O[C@H]1C(=O)[C@@]2(C)[C@H]([C@H](OC(=O)c3ccccc3)[C@]3(O)C[C@H](OC(=O)[C@H](O)[C@@H](NC(=O)c4ccccc4)c4ccccc4)C(C)=C1C3(C)C)[C@]1(OC(C)=O)CO[C@@H]1C[C@@H]2O` [paclitaxel, reference compound], the “effect on tubulin polymerization in words” value in data set [5] is “could distinctly promoted this process”.
As to `COc1ccc(-c2nnc3n2N=C(c2ccc(C)cc2)CS3)c(OC)c1OC` [Compound 4d, 3-(2,3,4-Trimethoxyphenyl)-6-(4-methyphenyl)-7H-[1,2,4]triazolo[3,4-b][1,3,4]thiadiazine], the half-inhibitory concentration (IC50) in data set [1] (setting [6]) was 66 nM; in data set [2] (setting [6]), 73 nM; in data set [3] (setting [6]), 28 nM; in data set [4] (setting [7]), 28 to 73 nM. Also, the “antiproliferative activity in words” value in data set [4] (MTT assay) is “IC50 values at the nanomolar level”.
As to `COc1ccc(C2=Nn3c(nnc3-c3cc(OC)c(OC)c(OC)c3)SC2)cc1O` [Compound 5i, 3-(3,4,5-Trimethoxyphenyl)-6-(3-hydroxy-4-methoxyphenyl)-7H-[1,2,4]triazolo[3,4-b][1,3,4]thiadiazine], the melting point lay in the range of 95 to 97 °C. Further, the half-inhibitory concentration (IC50) in data set [1] (Homo sapiens, SGC-7901, 24 h) amounted to 26 nM. Besides, in data set [2] (Homo sapiens, A549, 24 h), the IC50 was 71 nM. Besides, the IC50 in data set [3] (Homo sapiens, HT-1080, 24 h) worked out at 47 nM. Further, the IC50 in data set [4] (Homo sapiens) is 26 to 71 nM. In data set [4] (MTT assay), the “antiproliferative activity in words” value was “IC50 values at the nanomolar level”.
`COc1ccc(C2=Nn3c(nnc3-c3ccc(OC)c(OC)c3OC)SC2)cc1O` [Compound 4l, 3-(2,3,4-Trimethoxyphenyl)-6-(3-hydroxy-4-methoxyphenyl)-7H-[1,2,4]triazolo[3,4-b][1,3,4]thiadiazine]: the melting point is 88 to 89 °C. In addition, the IC50 in data set [1] (setting [8]) came to 16300 nM. The IC50 in data set [2] (setting [9]) worked out at 7730 nM. For the same compound, the half-inhibitory concentration (IC50) in data set [3] (setting [10]) was found to be 630 nM. The “antiproliferative activity in words” value in data set [4] (MTT assay) was “only moderate activity”.
On to `COc1ccc(/C=C/C=C\c2cc(OC)c(OC)c(OC)c2)cc1O` [vinylogous CA-4 (Z,E), vinylogous CA-4], for which, in the data set with HCT116, the IC50 was 163 nM.
In turn, `COc1ccc(C2=Nn3c(nnc3-c3ccc4c(c3)OCO4)SC2)cc1O` [Compound 6e, 3-(3,4-Methylenedioxyphenyl)-6-(3-hydroxy-4-methoxyphenyl)-7H-[1,2,4]triazolo[3,4-b][1,3,4]thiadiazine] came in with a melting point of 85 to 87 °C. The IC50 in data set [1] (setting [8]) is 37 nM. Also, the IC50 in data set [2] (setting [9]) came out at 79 nM. Besides, the half-maximal inhibitory concentration (IC50) in data set [3] (setting [10]) turned out to be 35 nM. Also, the “antiproliferative activity in words” value in data set [4] (MTT assay) was “nanomolar IC50 values against all tested cells; also recorded: IC50 values at the nanomolar level”.
`COc1ccc(C2=Nn3c(nnc3-c3ccc4c(c3)OCO4)SC2)cc1[N+](=O)[O-]` [Compound 6b, 3-(3,4-Methylenedioxyphenyl)-6-(3-nitro-4-methoxyphenyl)-7H-[1,2,4]triazolo[3,4-b][1,3,4]thiadiazine] registered a melting point of 90 to 92 °C. Further, the 50% inhibitory concentration (IC50) in data set [1] (setting [8]) was determined as 10500 nM. Moreover, the IC50 in data set [2] (setting [9]) amounted to 15700 nM. Further, the IC50 in data set [3] (setting [10]) worked out at 80 nM.

The record behind these values is article PMC5607265, “Design, synthesis and structure-activity relationship of 3,6-diaryl-7H-[1,2,4]triazolo[3,4-b][1,3,4]thiadiazines as novel tubulin inhibitors” (Scientific Reports, 2017).
